Experimental data reported in US20180055844A1 (Celgene Corporation, priority 2011, published 2018).
“And” between values parts separate entries of the source, which are not always exact repeats. Identical values can stand only once. Like-named read-outs stand apart in the source and are kept apart here.

Assays:
TNFα = test: WB TNFα; type: cell-based; conditions: Homo sapiens; whole blood
T cells = test: Anti-CD3-stimulated human T cell assay, cytokine production; type: cell-based
Protocol: T cells were isolated from buffy coat by negative selection using the RosetteSep® T Cell Enrichment Cocktail. The manufacturer's procedures were followed accordingly. All 96-well plates were pre-coated with 3 μg/ml anti-human CD3 antibody in 100 μl 1×PBS for 4 hours at 37° C. The plates were washed three times with RPMI-1640 Complete Media prior to the T cell assay. T cells were then plated in CD3 pre-coated plates at a density of 2.5×10^5 cells/well in 180 μl RPMI-1640 Complete Media. The cells were treated with 20 μl 10× titrated compounds at 10, 1, 0.1, 0.01, 0.001, 0.0001 and 0.00001 μM. Final DMSO concentrations were 0.25%. The plates were incubated for 48 hours at 37° C., 5% CO2. After 48 hours, the supernatants were harvested and tested by a multi-plex cytometric bead array (CBA) assay for the following cytokines/chemokines: IL-2, IL-3, IL-5, IL-10, IL-13, IL-15, IL-17a, GM-CSF, G-SCF, IFN-γ, TNF-α and RANTES. The CBA plates were analyzed on the Luminex IS100 instrument. […] All 96-well plates were pre-coated with 3 μg/mL anti-human CD3 antibody in 100 μL 1×PBS for 4 hours at 37° C. The plates were washed 3 times with RPMI-1640 Complete Media prior to the T cell assay. The T cells were then plated in anti-CD3-pre-coated plates at a density of 2.5×10^5 cells/well in 180 μL RPMI-1640 Complete Media. The cells were treated with 20 μL 10× titrated Celgene compounds at 10, 1, 0.1, 0.01, 0.001, 0.0001, and 0.00001 μM in duplicate. The final DMSO concentrations were 0.25%. The plates were incubated for 48 hours at 37° C., 5% CO2. After 48 hours, the supernatants were harvested and tested by a multiplex cytometric bead array (CBA) assay for the following cytokines/chemokines: IL-2, IL-3, IL-5, IL-10, IL-13, IL-15, IL-17A, GM-CSF, G-CSF, IFN-γ, TNF-α, and RANTES. The CBA plates were analyzed on the Luminex IS100 instrument.

[1] = tested on: megakaryocyte progenitor cells; test: MK colonies (megakaryocyte progenitor cells); type: cell-based
HUVEC [2] = test: HUVEC proliferation; type: cell-based, human
[3] = Proliferation assays with Rituxan (Chou-Talalay method); type: cell-based
DoHH2 xenograft = DoHH2 xenograft model; type: in vivo; conditions: for tumor growth inhibition: day 12
HIF-1α = HIF-1α protein expression in solid tumor cell lines; type: cell-based; conditions: 1 μM
DLBCL cell lines = test: In vitro DLBCL cell thymidine incorporation assay (panel); type: cell-based; conditions: 5 days, 3H-thymidine incorporation
Text: Results of 3 independent experiments are shown (mean±SD) in FIG. 2. […] ABC-subtype cells appear more sensitive to the antiproliferative effect than other subtype cells including GCB-DLBCL and PMBL cells.

[4] = Stability in human plasma; type: in vitro ADME; conditions: read-out: t1/2 in human plasma
Oral pharmacokinetics = type: in vivo; conditions: Cyno monkey
[5] = Oral administration for 7 consecutive days in rat; design: species or system male CD-IGS rat; conditions: in vivo
Protocol: The NOAEL was determined to be 1000 mg/kg/day.

H929 myeloma cells = test: Cell cycle in siRNA-transfected H929 cells; type: cell-based; conditions: 72 h treatment
Protocol: Cells were treated with DMSO or an amount of a compound provided herein for 48 hours. Propidium iodide staining for cell cycle was performed using CycleTEST PLUS (Becton Dickinson) according to manufacturer's protocol. Following staining, cells were analyzed by a FACSCalibur flow cytometer using ModFit LT software (Becton Dickinson).
The effect of cereblon in H929 myeloma cells was also evaluated. H929 cells were transfected with mock, negative control siRNA and CRBN-siRNA-7 for 24, 48, 72 and 96 hours.

U87 = test: Invasion of solid tumor cells; type: cell-based; conditions: Homo sapiens, U-87 MG; U87 (PDGF), glioblastoma
HCT15 = test: Invasion of solid tumor cells; type: cell-based
HEP-G2 = test: Solid tumor cell colony formation; type: cell-based; conditions: Homo sapiens, HepG2
SF268 = test: Solid tumor cell colony formation; type: cell-based; conditions: Homo sapiens, SF-268
ZR-75-1 = test: Solid tumor cell colony formation; type: cell-based; conditions: Homo sapiens
[6] = tested on: human umbilical vascular endothelial cell (HUVEC); test: HUVEC invasion; type: cell-based
HUVEC [7] = test: HUVEC migration; type: cell-based; conditions: Homo sapiens
[8] = cynomolgus monkey, plasma, 3 mg/kg, 3 mpk po

Compound: Cc1nc2cccc(N)c2c(=O)n1C1CCC(=O)NC1=O (centres unmarked) [compound of Formula I, 3-(5-amino-2-methyl-4-oxo-4H-quinazolin-3-yl)-piperidine-2,6-dione]
- IC50 (TNFα): 164 nM
- IL-5 production increase (T cells; 0.01 μM): 3 fold
- IL-5 production increase (T cells; 0.1 μM): 4 fold
- production of IL-2, IL-3, IL-5, IL-10, IL-15, GM-CSF, INF-γ, RANTES, and TNF-α (T cells; 0.01 to 10 μM): enhanced
- IL-10 production (T cells; 1 and 10 μM): inhibited
- EC50 (T cells; Homo sapiens, T-cell, read-out: T cell IL-2 EC50): 12 to 14 nM
- IL-10 production enhancement (T cells; low concentrations (≦0.01 μM)): 2 fold
- inhibition of megakaryocyte progenitor cells ([1]; 10 μM): did not inhibit
- IC50 ([1]; read-out: Immature MK colonies IC50): > 10 µM
- IC50 ([1]; read-out: Intermediate MK colonies IC50): > 10 µM
- HUVEC proliferation (HUVEC [2]): did not inhibit
- growth factor-induced HUVEC proliferation (HUVEC [2]; growth factor-induced): either enhanced or did not inhibit
- interaction with Rituxan in proliferation assays [3]: synergistically
- tumor growth inhibition (DoHH2 xenograft; 3 mpk in combination with Rituxan (1 mg/kg)): 45%
- tumor growth inhibition (DoHH2 xenograft; 30 mpk in combination with Rituxan (1 mg/kg)): 55%
- delay of time to tumor endpoint (DoHH2 xenograft; combination with Rituxan, 30 mg/kg dose): 63%
- blood vessels counts in tumor (DoHH2 xenograft; in vivo): significantly inhibited
- tumor growth (DoHH2 xenograft; single agent): inhibited tumor growth
- % Inhibition of HIF-1α protein expression (HIF-1α; 786-O (renal cancer)): 41.70%
- % Inhibition of HIF-1α protein expression (HIF-1α; DU145 (prostate cancer)): 66.01%
- % Inhibition of HIF-1α protein expression (HIF-1α; HCT15 (colorectal cancer)): 69.26%
- % Inhibition of HIF-1α protein expression (HIF-1α; HCT116 (colorectal cancer)): 74.60%
- % Inhibition of HIF-1α protein expression (HIF-1α; HT29 (colorectal cancer)): 78.54%
- % Inhibition of HIF-1α protein expression (HIF-1α; MCF-7 (breast cancer)): 74.82%
- % Inhibition of HIF-1α protein expression (HIF-1α; Miapaca-3 (pancreatic cancer)): 33.72%
- % Inhibition of HIF-1α protein expression (HIF-1α; Ovcar-3 (ovarian cancer)): 63.39%
- % Inhibition of HIF-1α protein expression (HIF-1α; Skov-3 (ovarian cancer)): 100.00%
- % Inhibition of HIF-1α protein expression (HIF-1α; U87 (brain cancer)): 73.81%
- concentration starting at which proliferation of several lines of DLBCL cells was significantly (p<0.05) inhibited (DLBCL cell lines): 0.1 to 1 µM
- half-life [4]: 230 min
- F (Oral pharmacokinetics; 3 mpk po): 32%
- AUC (Oral pharmacokinetics; [8]): 12000 ng·h/mL and 43 µM·h
- Cmax (Oral pharmacokinetics; [8]): 3300 ng/mL and 11 µM
- half-life (Oral pharmacokinetics; cynomolgus monkey, plasma, oral, 3 mpk): 348 min
- clearance (Oral pharmacokinetics; cynomolgus monkey, plasma, read-out: CLp): 1.2 mL/min/kg
- NOAEL at 7 days ([5]; oral, 7 consecutive days, male CD-IGS rat): 1000 mg/kg/day
- exposure versus dose ([5]; rat): near dose proportional exposure increases
- drug-induced delay in cell cycle progression (decrease of the number of cells in S phase) (H929 myeloma cells; H929, control (before CRBN knockdown)): 65%
- drug-induced delay in cell cycle progression (decrease of the number of cells in S phase) (H929 myeloma cells; H929, knockdown of CRBN): 22%
- IC50 (U87): 80 nM
- IC50 (HCT15; Homo sapiens, HCT-15, HCT15 (bFGF), colorectal): 7.2 nM
- ability to inhibit invasion of HCT-15 cells (HCT15; with siCRBN): reduced
- inhibition at 10 µM (HEP-G2): 6.9%
- inhibition at 10 µM (SF268): 0.6%
- inhibition at 10 µM (ZR-75-1): 90%
- IC50 ([6]; read-out: IC50 for inhibition of HGF-induced HUVEC invasion): 110 nM
- IC50 ([6]; read-out: IC50 for inhibition of VEGF-induced HUVEC invasion): 0.29 nM
- IC50 ([6]; read-out: IC50 for inhibition of bFGF-induced HUVEC invasion): 5.5 nM
- inhibition at 1 µM (HUVEC [7]; read-out: inhibition of VEGF-induced migration): 38%
- inhibition at 1 µM (HUVEC [7]; read-out: inhibition of bFGF-induced migration): 28%
